Assay results as given in publication PMC3310203 (Journal of Medicinal Chemistry, 2012).
“Also recorded” adds a separate entry of the source. Read-outs that look alike come from different tables or passages of the source.

Legend:
[1] = test system: HIV; experiment: In vitro anti-HIV activity in MT4 cells; assay type: cell-based; conditions: for times higher potency than 13a in the cell-based antiviral activity assay: fold versus 13a
[2] = target: HIV-1 protease (Human immunodeficiency virus type 1 group M subtype B, UniProt P04585); experiment: HIV protease inhibition, fluorometric assay; assay type: biochemical; conditions: for Ki: fluorometric assay, pH 5.0, 30 °C, 5 µM substrate
[3] = Metabolic stability; assay type: in vitro ADME, human
[4] = test system: Caco-2 cell; experiment: Caco-2 cell penetration assay; assay type: in vitro ADME
[5] = ATZ for comparison, cited from earlier work
[6] = p-bromide inhibitors 13a and 19a compared

Structure (SMILES)	activity in the cell-based antiviral assay (in words) [1]	activity in the enzyme assay (in words) [2]	permeability in the Caco-2 study (in words) [4]	other results
COC(=O)N[C@H](C(=O)NN(CC[C@]1(Cc2ccccc2)C(=O)N([C@H]2c3ccccc3C[C@H]2O)C[C@@H]1O)Cc1ccc(Br)cc1)C(C)(C)C [Compound 13c]	did not show any activity; also recorded: almost no inhibiting effect	did not show any activity; also recorded: almost no inhibiting effect		
COC(=O)N[C@H](C(=O)NN(CC[C@@]1(Cc2ccccc2)C(=O)N([C@H]2c3ccccc3C[C@H]2O)C[C@H]1O)Cc1ccc(-c2ccncc2)cc1)C(C)(C)C [Compound 13i]				times higher potency than 13a in the cell-based antiviral activity assay [1]: 10
COC(=O)N[C@H](C(=O)NN(CC[C@@]1(Cc2ccccc2)C(=O)N([C@H]2c3ccccc3C[C@H]2O)C[C@@H]1O)Cc1ccc(Br)cc1)C(C)(C)C [Compound 13d]			good results	metabolic clearance (in words) [3]: High metabolic clearance; Ki [2]: < 10 nM
COC(=O)N[C@H](C(=O)N[C@@H](Cc1ccccc1)[C@@H](O)CN(Cc1ccc(-c2ccccn2)cc1)NC(=O)[C@@H](NC(=O)OC)C(C)(C)C)C(C)(C)C [ATZ, Atazanavir]				Clint ([5]; ref 23): 90 μL min^–1 mg^–1; Clint ([5]; ref 64): 140 μL min^–1 mg^–1
COC(=O)N[C@H](C(=O)NN(CC[C@]1(Cc2ccccc2)C(=O)N([C@H]2c3ccccc3C[C@H]2O)C[C@H]1O)Cc1ccc(Br)cc1)C(C)(C)C [Compound 13b]	did not show any activity; also recorded: almost no inhibiting effect	did not show any activity; also recorded: almost no inhibiting effect		
COC(=O)N[C@H](C(=O)NN(CC[C@@]1(Cc2ccccc2)C(=O)N([C@H]2c3ccccc3C[C@H]2O)C[C@@H]1O)Cc1ccc(-c2cccnc2)cc1)C(C)(C)C [Compound 13h]			moderate permeability	
COC(=O)N[C@H](C(=O)NN(CC[C@@]1(Cc2ccccc2)C(=O)N([C@H]2c3ccccc3C[C@H]2O[Si](C)(C)C(C)(C)C)C[C@H]1O[Si](C)(C)C(C)(C)C)Cc1ccc(Br)cc1)C(C)(C)C [Compound 12a]	did not show any activity	did not show any activity; also recorded: did not show any inhibitory potency		
COC(=O)N[C@H](C(=O)NN(CCC[C@@]1(Cc2ccccc2)C(=O)N([C@H]2c3ccccc3C[C@H]2O)C[C@H]1O)Cc1ccc(Br)cc1)C(C)(C)C [Compound 19a]			high permeability	fold loss of potency versus 13a (EC50) [1, 6]: 5; fold loss of potency versus 13a (Ki) [2, 6]: 5
COC(=O)N[C@H](C(=O)NN(CC[C@@]1(Cc2ccccc2)C(=O)N([C@H]2c3ccccc3C[C@H]2O)C[C@H]1O)Cc1ccc(Br)cc1)C(C)(C)C [Compound 13a]				metabolic clearance (in words) [3]: High metabolic clearance; EC50 ([1]; Human immunodeficiency virus 1, MT4, antiviral activity, MT4 cells): < 1000 nM; Ki [2]: < 10 nM
COC(=O)N[C@H](C(=O)NN(CC[C@@]1(Cc2ccccc2)C(=O)N([C@H]2c3ccccc3C[C@H]2O[Si](C)(C)C(C)(C)C)C[C@@H]1O[Si](C)(C)C(C)(C)C)Cc1ccc(Br)cc1)C(C)(C)C [Compound 12d]	did not show any activity	did not show any activity; also recorded: did not show any inhibitory potency		
COC(=O)N[C@H](C(=O)NN(CC[C@@]1(Cc2ccccc2)C(=O)N([C@H]2c3ccccc3C[C@H]2O)C[C@H]1O)Cc1ccc(-c2cccnc2)cc1)C(C)(C)C [Compound 13g]			moderate permeability	times higher potency than 13a in the cell-based antiviral activity assay [1]: 10
